Measured values from the NIST ThermoML archive (doi:10.1016/j.jct.2010.06.011).

Legend:
[1] = Liquid, Vibrating tube method
[2] = xn = mol fraction of the nth substance listed; details: Liquid, Vibrating tube method, x2 = 0

COC(=O)OC [dimethyl carbonate]
mass density [kg/m3], [1]
Details	100 kPa	5000 kPa	10000 kPa	20000 kPa	30000 kPa	40000 kPa
293.15 K	1069.8	1074.4	1078.6	1086.9	1094.5	1101.9
298.15 K	1063.2	1068	1072.4	1080.8	1088.7	1096.2
303.15 K	1056.5	1061.3	1066	1074.7	1082.9	1090.4
308.15 K	1049.8	1054.6	1059.4	1068.5	1077	1084.8
313.15 K	1043	1048.1	1053	1062.3	1071	1079

CCCCCC [hexane]
mass density [kg/m3], [1]
Details	100 kPa	5000 kPa	10000 kPa	20000 kPa	30000 kPa	40000 kPa
293.15 K	659.4	664.8	669.7	678.7	686.9	694.3
298.15 K	654.9	660.4	665.5	674.8	683.2	690.7
303.15 K	650.2	655.8	661.2	670.8	679.3	687
308.15 K	645.7	651.5	657	666.9	675.8	683.6
313.15 K	640.9	647	652.8	663.1	672.1	680.2

CCCCCC [hexane] + COC(=O)OC
mass density [kg/m3], [2]
Details	100 kPa	5000 kPa	10000 kPa	20000 kPa	30000 kPa	40000 kPa
293.15 K	659.4	664.8	669.7	678.7	686.9	694.3
298.15 K	654.9	660.4	665.5	674.8	683.2	690.7
303.15 K	650.2	655.8	661.2	670.8	679.3	687
308.15 K	645.7	651.5	657	666.9	675.8	683.6
313.15 K	640.9	647	652.8	663.1	672.1	680.2
